Experimental data: the NIST ThermoML archive (doi:10.1021/acs.jced.9b00561)
± gives the expanded uncertainty stated by the source. Blank lines part the entries; values can stand above or below the compound they belong to.

Test: refractive index (Na D-line) (dimensionless); wn = mass fraction of the nth substance listed
Settings: 323.15 K, 101.3 kPa, Liquid, Standard Abbe refractometry

refractive index (w1 = 0.4841): 1.439 ± 0.0018
Structure (SMILES): [Cl-].[Li+] [lithium chloride] + O

refractive index (w1 = 0.2683): 1.3765 ± 0.0019
Structure (SMILES): [Cl-].[Na+] [sodium chloride] + O

Structure (SMILES): O=BOB([O-])OB([O-])OB=O.[Na+].[Na+] [sodium tetraborate] + O
refractive index (w1 = 0.0953): 1.3477 ± 0.0004
